{"source": "patent US11752159B2", "about": "“Compositions and methods for suppressing or reducing systemic immune response in a subject” (THE TRUSTEES OF THE UNIVERSITY OF PENNSYLVANIA, priority 2015, dated 2023)", "key": {"TSLP": {"test_system": "TSLP", "test": "Systemic TSLP induction by topical vitamin D3 analogs (ELISA)", "assay_type": "in vivo, mice", "settings": "topical, ear skin bilaterally, 2 nmol/ear in ethanol, after 5 days of treatment"}, "Tregs": {"test_system": "Tregs", "test": "Dosing schedule of chronic topical MC903: circulating Tregs and atopic dermatitis", "assay_type": "in vivo, mice", "text": "FIG. 11 comprises a graph illustrating data derived from topically treating mice with MC903 (2 nmol on one ear) 3 times/week every other week or with MC903 (2 nmol on one ear) 3 times/week every week (alternating ears every week) for 8 weeks. The % of Tregs out of CD4+ T cells in the blood before (baseline) and after treatment (Weeks 1, 4, 6, and 8) is illustrated. N=3 mice/group. * p<0.05 by Student t-test.\nFIG. 12 comprises a graph illustrating data derived from topically treating mice with EtOH or MC903 (2 nmol) 3 times/week every other week for 10 weeks. The % of Tregs out of CD4+ T cells in the blood before (Day 0) and after treatment (Day 8 and Week 10) is illustrated. N=7 mice/group.\nTo test whether chronic MC903 treatment results in sustained increases in Treg numbers, mice were continuously treated with MC903 for more than 2 weeks.\nTo avoid this local toxic effect of MC903, alternating ears were treated every week (right ear for 1 week, followed by the left ear for 1 week, then back to the right ear for 1 week, and so on). […] Without wishing to be limited by any theory, the increase in Tregs appeared to be become refractory to the chronic MC903 treatment. Thus, the protocol was modified so that a 1-week rest period (pulse treatment) was given between weekly treatments."}, "ApoE KO mice": {"test_system": "ApoE KO mice", "test": "ApoE KO mouse model of atherosclerosis, topical MC903", "assay_type": "in vivo", "settings": "high fat Western diet, topical 3 times/week every other week for 10 weeks", "text": "FIGS. 6A-6B comprise graphs illustrating data derived from topical treatment of ApoE KO mice fed a high-fat Western diet with EtOH or MC903 (2 nmol) 3 times/week every other week for 10 weeks. FIG. 6A illustrates the total cholesterol levels at baseline, at week 3, and week 10 of ApoE KO mice. FIG. 6B illustrates the atherosclerotic plaques difference among ApoE KO mice. The full length of the aorta was removed from the mice at week 10 and stained with Oil Red O dye to detect atherosclerotic plaques. The area occupied by the plaque was calculated and divided by the total area of the aorta (% lesion area). N=7 mice/group. * indicates significance of p<0.01 by T-test.\nThe effects of topical application of MC903 on atherosclerotic plaques were investigated. Atherosclerosis is a disease condition where lipid deposition occurs in arterial walls, leading to obstruction of blood flow. Ultimately, these lesions cause morbidity and mortality by affecting blood flow to the heart (myocardial infarction; angina) or the brain (stroke). Although these lesions are formed by cholesterol deposits in patients who have hypercholesterolemia, immune activation is necessary for plaque progression, and Tregs are implicated in dampening the progression of atherosclerosis. It is contemplated that topical MC903 treatment can attenuate plaque progression in atherosclerosis. […]"}, "NOD mice": {"test_system": "NOD mice", "test": "NOD mouse model of type I diabetes, topical MC903", "assay_type": "in vivo", "text": "FIGS. 5A-5B comprise graphs illustrating data derived from topical treatment of NOD mice with EtOH or MC903 (2 nmol) 3 times/week every other week at Week 5 of age; treatment was stopped at Week 15 of age. FIG. 5A illustrates the percentage of Tregs out of CD4+ T cells in the blood of NOD mice before (Day 0) and after treatment (Day 8). […] The % of mice with diabetes is plotted over the age of the mice (N=7 mice/group-EtOH; N=8 mice/group-MC903).\nTo test whether topical treatment with MC903 would lead to amerilioration of inflammatory disorders, it was tested whether topical application of MC903 protected a mouse against type I diabetes (T1D), using a non-obese diabetes (NOD) mouse model of diabetes. NOD mice were treated 3 times a week with MC903 on alternating ears every week."}, "[1]": {"test": "Toxicity (morbidity and mortality) of topical vitamin D3 analogs in mice", "assay_type": "in vivo", "settings": "mouse, in vivo", "method": "VDR stimulation of keratinocytes led to TSLP production, which in certain embodiments caused increase in Treg numbers. The effects of two vitamin D3 analogs (22-Oxacalcitriol, also known as 22-OXA, and EB1089) on TSLP production and Treg numbers were evaluated. Similarly to MC903, 22-OXA and EB1089 were applied to the ear skin bilaterally at a dose of 2 nmol/ear dissolved in ethanol. After 5 days of treatment, the mice were bled and serum TSLP levels were measured. […] To avoid the toxic effect, the dose of 22-OXA and EB1089 was lowered to a point where morbidity and mortality of mice was not observed (0.4 nmol/ear for 22-OXA; 0.04 nmol/ear for EB1089). At this dose, no increase in TSLP level was detected in 22-OXA-treated mice (FIG. 9B)."}, "[2]": {"test_system": "regulatory T cells (Tregs)", "test": "Kinetics of systemic Treg levels after topical MC903 treatment", "assay_type": "in vivo, mice", "settings": "Day 15, after cessation of topical treatment", "text": "FIG. 3A-3C comprise graphs illustrating data derived from topical treatment of B6 mice with EtOH or MC903 (2 nmol) until […]. Mice were taken at different time points post treatment initiation as indicated. FIG. 3A is a graph illustrating the percentage of Tregs out of CD4+ T cells in the spleen and blood of B6 mice over 18 days. FIG. 3B illustrates the absolute numbers of Tregs in the spleen of B6 mice over 18 days. FIG. 3C illustrates the serum thymic stromal lymphopoietin (TSLP) level change over time in B6 mice over 18 days.\n(§1) Next, the kinetics of the systemic increase in Treg levels was investigated after topical MC903 treatment (treatment stopped on Day 7). The absolute number and the fraction of Tregs increased to a peak between days 6 and 9 and gradually declined thereafter in the spleen and the blood of MC903-treated mice (FIGS. 3A-3B). Circulating TSLP levels peaked at Day 6 and fell abruptly by Day 9 (FIG. 3C)."}, "[3]": {"test_system": "Tregs and conventional CD4+ T cells (Tconvs)", "test": "BrdU incorporation in splenic Tregs and conventional T cells", "assay_type": "in vivo, mice", "settings": "spleen, Day 8, topical 2 nmol daily", "text": "FIGS. 4A-4B comprise graphs illustrating data derived from topical treatment of B6 mice with EtOH or MC903 (2 nmol) daily and BrdU (intraperitoneal injection as a loading dose, followed by administration of drinking water) for the last 3 days. FIG. 4A illustrates Bromodeoxyuridine (BrdU) incorporation in Tregs on Day 8 in the spleen of B6 mice. FIG. 4B illustrates BrdU incorporation in conventional T cells (Tconvs) on Day 8 in the spleen of B6 mice.\nas §1"}, "[4]": {"settings": "3 days (every other day)/week every other week"}}, "data": [{"smiles": "C=C1/C(=C\\C=C2/CCC[C@]3(C)[C@@H]([C@H](C)/C=C/[C@@H](O)C4CC4)CC[C@@H]23)C[C@@H](O)C[C@@H]1O", "note": "[MC903, 26,27-cyclo-22-ene-1α,24S-dihydroxyvitamin D3]", "values": [{"measurement": "serum TSLP levels", "setting": "TSLP", "result": "can induce TSLP production"}, {"measurement": "atopic inflammation, pulse treatment", "setting": "Tregs; [4]", "result": "atopic inflammation was avoided"}, {"measurement": "circulating Treg numbers, pulse treatment", "setting": "Tregs; [4]", "result": "increased over a 10 week period"}, {"measurement": "Tregs at Day 8, alternating ear protocol", "setting": "Tregs; alternating ears every week, Day 8", "result": "increased systemically"}, {"measurement": "circulating Tregs at Week 4 of treatment and beyond, alternating ear protocol", "setting": "Tregs; alternating ears every week, no rest week", "result": "not increased"}, {"measurement": "atopic dermatitis with alternating ear protocol", "setting": "Tregs; alternating ears treated every week", "result": "minimal atopic dermatitis"}, {"measurement": "local toxicity with chronic once/day treatment of more than 1 week", "setting": "Tregs; mouse, in vivo", "result": "development of atopic dermatitis of the ear skin"}, {"measurement": "decrease of % of area occupied by the plaques in the aorta", "setting": "ApoE KO mice", "result": "> 50", "unit": "%"}, {"measurement": "total cholesterol levels", "setting": "ApoE KO mice", "result": "did not alter"}, {"measurement": "circulating Treg levels", "setting": "NOD mice; Day 8 post-treatment, compared to vehicle", "result": "increased"}, {"measurement": "atopic dermatitis under treatment protocol", "setting": "NOD mice; topical 3 times a week on alternating ears, 8 weeks", "result": "little to no evidence of atopic dermatitis"}, {"measurement": "incidence of T1D (two consecutive blood glucose readings >250 mg/dl)", "setting": "NOD mice; topical MC903 compared to vehicle", "result": "significantly attenuated"}, {"measurement": "systemic toxicity", "setting": "[1]", "result": "without any apparent systemic toxicity"}, {"measurement": "Treg levels versus EtOH-treated group by Day 15", "setting": "[2]", "result": "no differences"}, {"measurement": "BrdU incorporation by Tregs", "setting": "[3]", "result": "enhanced"}, {"measurement": "BrdU incorporation by conventional CD4+ T cells (Tconvs)", "setting": "[3]", "result": "no significant increase"}]}]}
